In US10295529B2, “Feline bitter taste receptors and methods” (Applied Food Biotechnology, Inc., priority 2013, dated 2019):

Key:
Type in all cases: cell-based, feline
[1] = tested on: fTAS2R43; experiment: Fluo-4AM calcium assay, cells transiently expressing fTAS2R43 with Gα16gust44
Experimental: (§1) Cell lines that transiently express a desired TAS2R disclosed herein are generated by transfecting the appropriate expression vector, e.g., pcDNA3.1D-FLAGV5His-TAS2R38, constructed as described above in Ex. 2A into cells of a eukaryotic cell line (e.g., ATCC #CRL-11268 or Life Technologies, Cat# R700-07).
(§2) On day 0, 60,000 cells per well are plated on poly lysine coated, black 96 well plates with clear bottoms (Costar). The following day the cells are transfected with 150 ng TAS2R38 expression vector, e.g., pcDNA3.1D-FLAGV5His (Invitrogen) along with 45 ng of Gα16 chimera containing the last 44 amino acids of rat gustducin (Gα16gust44) with 0.5 ul Lipofectamine 2000 (Invitrogen) per well. Cells are then incubated 22-44 hours at 37° C. 5% CO2.
(§3) The expression of fTAS2R38 is evaluated by testing for the presence of a functional response to a known hTAS2R38 ligand (e.g., PTC), determined via automated calcium imaging using a Fluo-4AM (Life Technologies Corporation) Calcium Assay. Fluo-4AM is a fluorescent indicator of intracellular calcium dynamics (change in concentration) and allows monitoring changes in the calcium concentration, particularly an increase in response to receptor activation occurring after agonist exposure.
Generation of cell lines transiently expressing the other fTAS2Rs disclosed herein is analogous.
(§4) Testing for a functional response of fTAS2R38 to the known hTAS2R38 ligands, PTC and PROP, and of fTAS2R43 to the known hTAS2R43 ligands, aloin, denatonium and saccharine), was determined via automated calcium imaging using the Fluo-4AM (Life Technologies Corporation) Calcium Assay.

[2] = tested on: fTAS2R38; experiment: Fluo-4AM calcium assay, cells transiently expressing fTAS2R38 with Gα16gust44
Experimental: as §1, §2, §3, §4

[3] = tested on: fTAS2R38; experiment: Fluo-4AM calcium assay, stable Gα16-gustducin 44/TAS2R38 cell line
Source text: Fluo-4AM is a fluorescent indicator of intracellular calcium dynamics (change in concentration) and allows monitoring changes in the calcium concentration, particularly an increase in response to receptor activation occurring after agonist exposure.

O=C1NS(=O)(=O)c2ccccc21 [saccharin]
stimulation of receptor ([1]; 6.7 mM saccharin, transient expression): not stimulated

CCCN(CCC)S(=O)(=O)c1ccc(C(=O)O)cc1 [probenecid, p-(dipropylsulfamoyl)benzoic acid]
inhibition of the response to PTC ([2]; 1 mM probenecid, response of fTAS2R38 to PTC): inhibited | inhibition of the response to aloin ([1]; 1 mM probenecid, response of fTAS2R43 to aloin): inhibited | inhibition of the response to denatonium ([1]; 1 mM probenecid, response of fTAS2R43 to denatonium): inhibited

NC(=S)Nc1ccccc1 [PTC, phenylthiocarbamide]
activation over baseline ([2]; 100 μM PTC, transient expression): 81% | activation over baseline ([3]; 100 μM PTC): 90%

CCCc1cc(=O)[nH]c(=S)[nH]1 [PROP, 6-n-propylthiouracil]
stimulation of receptor ([2]; 30 μM PROP, transient expression): not stimulated | activation of cell line ([3]; 30 μm PROP): not activated
